In patent US20060069132A1, “Azolecarboxamide herbicides” (priority 2004, published 2006):

Assays:
pigweed = test: Test B pre-/postemergence herbicide test; assay type: in vivo, Amaranthus retroflexus
In short: (§1)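 Herbicidal effect was judged by eye on a 0–100 scale after plants stood 13 to 15 days in the greenhouse following pre- or postemergence treatment with surfactant-containing formulations.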

blackgrass = test: Test B postemergence herbicide test; assay type: in vivo, Alopecurus myosuroides
In short: (§2)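 Paddy species grown to the 2-leaf stage under flooding; blackgrass sprayed postemergence at 2–18 cm (1- to 4-leaf stage). Plants kept in a greenhouse for 13 to 15 days, then visually rated against controls on 0 (no effect) to 100 (complete control).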

barnyardgrass [1] = test: Test B pre-/postemergence herbicide test; assay type: in vivo, Echinochloa crus-galli
In short: (§3)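 Test chemicals in a non-phytotoxic solvent mixture with surfactant were applied preemergence to seeded species and postemergence to plants 2-18 cm tall (1- to 4-leaf stage); rice and barnyardgrass were also tested in a flooded paddy at the 2-leaf stage. Visual rating versus controls after 13-15 days in greenhouse, scale 0 (no effect) to 100 (complete control).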

Surinam grass = test: Test B pre-/postemergence herbicide test; assay type: in vivo, Urochloa decumbens
In short: as §1

morningglory = test: Test B pre-/postemergence herbicide test; assay type: in vivo, Ipomoea coccinea; settings: for Morningglory plant response rating: postemergence
In short: as §3

large crabgrass = test: Test B pre-/postemergence herbicide test; assay type: in vivo, Digitaria sanguinalis
In short: as §1

lambsquarters = test: Test B pre-/postemergence herbicide test; assay type: in vivo, Chenopodium album
In short: as §1

barnyardgrass [2] = test: Test B flooded paddy test; assay type: in vivo, Echinochloa crus-galli; settings: 1000 g ai/ha, scale 0 to 100 (0 no effect, 100 complete control)
In short: as §2

wheat = test: Test B postemergence herbicide test; assay type: in vivo, Triticum aestivum; set-up: key to Wheat plant response rating: 0 = no effect, 100 = complete control
In short: (§4)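 Greenhouse test; postemergence application to plants at 1–4 leaves (2–18 cm); paddy species at 2 leaves; evaluated visually vs controls at 13–15 days; scale 0–100 (100 = complete control).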

rice = test: Test B flooded paddy test; assay type: in vivo, Oryza sativa; settings: 1000 g ai/ha, scale 0 to 100 (0 no effect, 100 complete control)
In short: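 Treated at 2-leaf (paddy) or 1–4-leaf, 2–18 cm (postemergence); greenhouse 13–15 d; visual score vs control, 0 none to 100 complete control; dash = not tested.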

cocklebur = test: Test B pre-/postemergence herbicide test; assay type: in vivo, Xanthium strumarium
In short: as §3

velvetleaf = test: Test B pre-/postemergence herbicide test; assay type: in vivo, Abutilon theophrasti
In short: as §1

wild oat = test: Test B postemergence herbicide test; assay type: in vivo, Avena fatua
In short: as §4

ducksalad = test: Test B flooded paddy test; assay type: in vivo, Heteranthera limosa; settings: 1000 g ai/ha, scale 0 to 100 (0 no effect, 100 complete control)
In short: as §2

corn = test: Test B pre-/postemergence herbicide test; assay type: in vivo, Zea mays
In short: as §1

[3] = tested on: small flower umbrella sedge; test: Test B flooded paddy test; assay type: in vivo, Cyperus difformis; settings: 1000 g ai/ha, scale 0 to 100 (0 no effect, 100 complete control)
In short: as §2

[4] = 125 g ai/ha; 0 = no effect, 100 = complete control; preemergence
[5] = 125 g ai/ha; visual rating, scale 0 (no effect) to 100 (complete control); postemergence
[6] = 500 g ai/ha; visual rating, 0 = no effect, 100 = complete control; preemergence
[7] = postemergence, 500 g ai/ha; scale 0 to 100, 0 is no effect, 100 is complete control
[8] = 125 g ai/ha, 0 = no effect, 100 = complete control, preemergence
[9] = 125 g ai/ha, visual rating, scale 0 (no effect) to 100 (complete control), postemergence
[10] = 500 g ai/ha, visual rating, 0 = no effect, 100 = complete control, preemergence
[11] = postemergence, 500 g ai/ha, scale 0 to 100, 0 is no effect, 100 is complete control
[12] = Postemergence, 500 g ai/ha; visual rating after 13 to 15 days, scale 0 (no effect) to 100 (complete control)
[13] = postemergence, 125 g ai/ha; visual rating, scale 0 (no effect) to 100 (complete control)
[14] = preemergence, 125 g ai/ha; 0 to 100 scale, 0 is no effect, 100 is complete control
[15] = Postemergence, 500 g ai/ha, visual rating after 13 to 15 days, scale 0 (no effect) to 100 (complete control)
[16] = Preemergence, 500 g ai/ha, scale 0 to 100
[17] = postemergence, 125 g ai/ha, visual rating, scale 0 (no effect) to 100 (complete control)
[18] = preemergence, 125 g ai/ha, 0 to 100 scale, 0 is no effect, 100 is complete control

CCNC(=O)c1cccc(NC(=O)c2cc(C3(C)CC3)nn2CC)c1 [Compound 306]
60: Barnyardgrass plant response rating (0 to 100 scale) (barnyardgrass [1]; [8]) | Rice plant response rating (rice) | Velvetleaf plant response rating (velvetleaf; [7])
0: Cocklebur plant response rating (0 to 100 scale) (cocklebur; [8])
10: Blackgrass plant response rating (blackgrass; [5]) | Barnyardgrass plant response rating (barnyardgrass [1]; [9]) | Barnyardgrass plant response rating (barnyardgrass [1]; [11]) | Surinam Grass plant response rating (Surinam grass; [5]) | Morningglory plant response rating (0 to 100 scale) (morningglory; [8]) | Plant response rating, Morningglory (morningglory; [10]) | Crabgrass, Large plant response rating (large crabgrass; [9]) | Wheat plant response rating (wheat; [5])
30: Blackgrass plant response rating (blackgrass; [7]) | Surinam Grass plant response rating (0 to 100 scale) (Surinam grass; [4]) | Surinam Grass plant response rating (Surinam grass; [7]) | Cocklebur plant response rating (cocklebur; [9]) | Oat, Wild plant response rating (wild oat; [7]) | Corn plant response rating (corn; [9]) | Corn plant response rating (corn; [11])
50: Crabgrass, Large plant response rating (large crabgrass; [11]) | Plant response rating, Cocklebur (cocklebur; [10])
90: Plant response rating, Barnyardgrass (barnyardgrass [1]; [10]) | Plant response rating, Surinam Grass (Surinam grass; [6])
80: Lambsquarters plant response rating (lambsquarters; [7]) | Barnyardgrass plant response rating (barnyardgrass [2]) | Ducksalad plant response rating (ducksalad) | Sedge, Umbrella plant response rating [3]
70: Pigweed plant response rating (pigweed; [5]) | Morningglory plant response rating (morningglory; 500 g ai/ha, scale 0 to 100, 0 is no effect, 100 is complete control) | Lambsquarters plant response rating (lambsquarters; [5]) | Cocklebur plant response rating (cocklebur; [11]) | Corn plant response rating (0 to 100 scale) (corn; [8])
100: Pigweed plant response rating (0 to 100 scale) (pigweed; [4]) | Plant response rating, Pigweed (pigweed; [6]) | Pigweed plant response rating (pigweed; [7]) | Crabgrass, Large plant response rating (0 to 100 scale) (large crabgrass; [8]) | Plant response rating, Crabgrass, Large (large crabgrass; [10]) | Lambsquarters plant response rating (0 to 100 scale) (lambsquarters; [4]) | Plant response rating, Lambsquarters (lambsquarters; [6]) | Plant response rating, Velvetleaf (velvetleaf; [6]) | Plant response rating, Corn (corn; [10])
40: Velvetleaf plant response rating (velvetleaf; [5])
20: Wheat plant response rating (wheat; [7]) | Oat, Wild plant response rating (wild oat; [5])

CCCN1CCc2c(NC(=O)c3cc(C(C)(C)C)nn3CC)cccc2C1=O [Compound 65]
70: Plant response rating, Lambsquarters (lambsquarters; [12]) | Lambsquarters plant response rating (lambsquarters; [13])
90: Plant response rating, Pigweed (pigweed; [14]) | Barnyardgrass plant response rating (barnyardgrass [1]; [16]) | Ducksalad plant response rating (ducksalad; visual rating, 13 to 15 days) | Sedge, Umbrella plant response rating ([3]; visual rating, 13 to 15 days)
20: Plant response rating, Surinam Grass (Surinam grass; [12]) | Surinam Grass plant response rating (Surinam grass; [13]) | Plant response rating, Morningglory (morningglory; [15]) | Plant response rating, Crabgrass, Large (large crabgrass; [15]) | Plant response rating, Crabgrass, Large (large crabgrass; [18]) | Plant response rating, Oat, Wild (wild oat; [12]) | Plant response rating, Corn (corn; [15]) | Corn plant response rating (corn; [17])
60: Plant response rating, Pigweed (pigweed; [12]) | Cocklebur plant response rating (cocklebur; [17])
40: Pigweed plant response rating (pigweed; [13])
0: Plant response rating, Morningglory (morningglory; [18]) | Wheat plant response rating (wheat; [13]) | Cocklebur plant response rating (cocklebur; [16]) | Plant response rating, Cocklebur (cocklebur; [18]) | Plant response rating, Corn (corn; [18])
10: Plant response rating, Blackgrass (blackgrass; [12]) | Blackgrass plant response rating (blackgrass; [13]) | Plant response rating, Barnyardgrass (barnyardgrass [1]; [15]) | Barnyardgrass plant response rating (barnyardgrass [1]; [17]) | Plant response rating, Surinam Grass (Surinam grass; [14]) | Morningglory plant response rating (morningglory; 125 g ai/ha, visual rating, scale 0 (no effect) to 100 (complete control)) | Crabgrass, Large plant response rating (large crabgrass; [17]) | Plant response rating, Wheat (wheat; [12]) | Plant response rating, Velvetleaf (velvetleaf; [12]) | Velvetleaf plant response rating (velvetleaf; [13]) | Plant response rating, Velvetleaf (velvetleaf; [14]) | Oat, Wild plant response rating (wild oat; [13]) | Corn plant response rating (corn; [16])
80: Crabgrass, Large plant response rating (large crabgrass; [16]) | Plant response rating, Lambsquarters (lambsquarters; [14]) | Barnyardgrass plant response rating (barnyardgrass [2]; visual rating, 13 to 15 days) | Plant response rating, Cocklebur (cocklebur; [15])
50: Plant response rating, Barnyardgrass (barnyardgrass [1]; [18]) | Rice plant response rating (rice; visual rating, 13 to 15 days)
